Literature values, collected in patent publication US20140147381A1, “89ZR COMPOUNDS, TO INCLUDE SOMATOSTATIN, APPARATUS AND PRODUCTS COMPRISING SUCH COMPOUNDS, METHODS OF MAKING SAME, AND METHODS OF USING SAME FOR RADIO IMAGING AND/OR TREATMENT” (priority 2012, published 2014).
Blank lines part the entries; values can stand above or below the compound they belong to.

How the values were obtained:
[1] = small-animal PET
[2] = system: carcinoid tumors; conditions: carcinoid patients
[3] = in vitro

site of accumulation ([1]; free 89Zr(IV) ions): accumulate in the liver
Compound: [Cl][89Zr]([Cl])([Cl])[Cl] [[^89Zr]-chloride]

Compound: Interferon
biochemical response rate [2]: 40%
tumor response rate [2]: 12%

excreted rapidly via the kidneys within [1]: < 20 min
stable with respect to ligand dissociation in human serum [3]: > 7 days
Compound: [^89Zr]-DFO
